Measurements: US20240368214A1, “POSITIVE NMDA-MODULATING COMPOUNDS AND METHODS OF USE THEREOF” (SAGE THERAPEUTICS, INC., priority 2021, published 2024)
Like-named read-outs stand apart in the source and are kept apart here.

Molecular target: T1, recombinant human GluN1/GluN2A receptor (Homo sapiens, UniProt Q05586+Q12879)
T1 construct: expressed in transfected cells; host or cells: HEK293, tetracycline-inducible expression
Experiment: Whole-cell patch clamp of mammalian cells (Syncropatch 384i), NMDA modulation
Type: cell-based
Method in brief: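 Modulation read as fold rise in peak current, (Icomp/Icontrol)−1, from 8 concentrations with ≥2 wells each, four-parameter fit. Compound pre-incubated 120 s then co-applied with 1 μM glutamate plus 100 μM glycine; tetracycline-inducible HEK293 GluN1/GluN2A cells clamped at −80 mV.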

[1] = Table C-2, HEK293 cells, human GluN1/GluN2A, glutamate 1 μM / glycine 100 μM, -80 mV, peak amplitude increase
[2] = Table C-2, HEK293 cells, human GluN1/GluN2A, glutamate 1 μM / glycine 100 μM, -80 mV, peak amplitude increase, read-out: EC50

T1 sequence (Q12879 23-1464, other chains not shown): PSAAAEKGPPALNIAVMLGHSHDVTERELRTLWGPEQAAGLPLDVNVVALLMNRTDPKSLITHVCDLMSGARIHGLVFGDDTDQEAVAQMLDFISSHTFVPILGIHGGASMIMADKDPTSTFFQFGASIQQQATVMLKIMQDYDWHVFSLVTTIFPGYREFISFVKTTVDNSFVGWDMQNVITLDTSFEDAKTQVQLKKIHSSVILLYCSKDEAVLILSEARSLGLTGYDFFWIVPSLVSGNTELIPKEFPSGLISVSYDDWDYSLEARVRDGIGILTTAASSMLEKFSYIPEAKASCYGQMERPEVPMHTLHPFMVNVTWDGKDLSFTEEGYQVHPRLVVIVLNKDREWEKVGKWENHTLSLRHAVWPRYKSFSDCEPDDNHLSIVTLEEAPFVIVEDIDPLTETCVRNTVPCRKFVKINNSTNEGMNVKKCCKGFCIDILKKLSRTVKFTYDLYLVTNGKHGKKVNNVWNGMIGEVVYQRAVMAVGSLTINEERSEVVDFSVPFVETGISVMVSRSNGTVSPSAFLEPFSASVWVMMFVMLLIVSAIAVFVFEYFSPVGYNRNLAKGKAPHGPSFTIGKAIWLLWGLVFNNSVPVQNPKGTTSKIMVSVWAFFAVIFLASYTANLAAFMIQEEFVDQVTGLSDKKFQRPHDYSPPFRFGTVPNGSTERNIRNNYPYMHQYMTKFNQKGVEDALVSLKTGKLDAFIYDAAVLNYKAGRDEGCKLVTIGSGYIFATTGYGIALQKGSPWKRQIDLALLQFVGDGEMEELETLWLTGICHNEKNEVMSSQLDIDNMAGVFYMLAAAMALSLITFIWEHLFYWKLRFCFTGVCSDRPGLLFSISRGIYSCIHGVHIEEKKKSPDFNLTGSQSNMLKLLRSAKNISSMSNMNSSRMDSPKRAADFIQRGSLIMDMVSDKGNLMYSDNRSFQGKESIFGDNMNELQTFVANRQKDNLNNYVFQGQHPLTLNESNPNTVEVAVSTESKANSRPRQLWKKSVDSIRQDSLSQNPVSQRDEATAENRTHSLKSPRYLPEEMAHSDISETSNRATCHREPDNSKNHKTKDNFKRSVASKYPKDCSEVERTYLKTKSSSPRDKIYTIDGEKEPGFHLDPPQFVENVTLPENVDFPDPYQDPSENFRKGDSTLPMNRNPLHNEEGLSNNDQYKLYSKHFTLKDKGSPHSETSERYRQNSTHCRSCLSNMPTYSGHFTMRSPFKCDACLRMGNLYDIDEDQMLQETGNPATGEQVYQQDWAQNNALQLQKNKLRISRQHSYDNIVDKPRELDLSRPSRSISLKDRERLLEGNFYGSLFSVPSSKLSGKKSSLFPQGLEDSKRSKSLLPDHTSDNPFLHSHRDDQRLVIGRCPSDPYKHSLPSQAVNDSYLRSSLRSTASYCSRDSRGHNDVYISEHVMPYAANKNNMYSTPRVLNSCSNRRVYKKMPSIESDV

**Q.** With CC[C@]1(O)CC[C@@]2(C)[C@@H](CC[C@@H]3[C@@H]2CC[C@]2(C)[C@@H]([C@H](C)CC[C@@H](O)CC#N)CC[C@@H]32)C1 [Compound C-11, (3R,6R)-6-((3S,5S,8R,9S,10S,13R,14S,17R)-3-ethyl-3-hydroxy-10,13-dimethylhexadecahydro-1H-cyclopenta[a]phenanthren-17-yl)-3-hydroxyheptanenitrile] as the compound, how does the Emax [1] read?
**A.** Its Emax is 100 to 200%.

**Q.** And the EC50 [2]?
**A.** The EC50 was 1 to 100 nM.

**Q.** Which results are given for CC[C@]1(O)CC[C@@]2(C)C(=CC[C@H]3[C@@H]4CC[C@H]([C@H](C)CC[C@@H](O)C(C)(C)C#N)[C@@]4(C)CC[C@@H]32)C1 [Compound C-12]?
**A.** EC50: 1 to 100 nM; Emax [1]: > 200%

**Q.** How did the Emax [1] turn out when CC[C@]1(O)CC[C@@]2(C)C(=CC[C@H]3[C@@H]4CC[C@H]([C@H](C)CC[C@H](O)C(C)(C)C#N)[C@@]4(C)CC[C@@H]32)C1 [Compound C-13, (3S,6R)-6-((3S,8S,9S,10R,13R,14S,17R)-3-ethyl-3-hydroxy-10,13-dimethyl-2,3,4,7,8,9,10,11,12,13,14,15,16,17-tetradecahydro-1H-cyclopenta[a]phenanthren-17-yl)-3-hydroxy-2,2-dimethylheptanenitrile] was run?
**A.** Its Emax is 100 to 200%.

**Q.** And the EC50 [2]?
**A.** Its EC50 is 1 to 100 nM.

**Q.** CC[C@]1(O)CC[C@@]2(C)C(=CC[C@H]3[C@@H]4CC[C@H]([C@H](C)CC[C@H](O)C5(C#N)CCC5)[C@@]4(C)CC[C@@H]32)C1 [Compound C-18, 1-((1S,4R)-4-((3S,8S,9S,10R,13R,14S,17R)-3-ethyl-3-hydroxy-10,13-dimethyl-2,3,4,7,8,9,10,11,12,13,14,15,16,17-tetradecahydro-1H-cyclopenta[a]phenanthren-17-yl)-1-hydroxypentyl)cyclobutane-1-carbonitrile] was tested. Which EC50 [2] did it give?
**A.** Its EC50 is 100 to 500 nM.

**Q.** With CC[C@]1(O)CC[C@@]2(C)C(=CC[C@H]3[C@@H]4CC[C@H]([C@H](C)CC[C@@H](O)C5(C#N)CCC5)[C@@]4(C)CC[C@@H]32)C1 [Compound C-19, 1-((1R,4R)-4-((3S,8S,9S,10R,13R,14S,17R)-3-ethyl-3-hydroxy-10,13-dimethyl-2,3,4,7,8,9,10,11,12,13,14,15,16,17-tetradecahydro-1H-cyclopenta[a]phenanthren-17-yl)-1-hydroxypentyl)cyclobutane-1-carbonitrile] as the compound, how does the EC50 [2] read?
**A.** Its EC50 is 1 to 100 nM.

**Q.** For CC[C@]1(O)CC[C@@]2(C)C(=CC[C@H]3[C@@H]4CC[C@H]([C@H](C)CC[C@H](O)C5(C#N)CC5)[C@@]4(C)CC[C@@H]32)C1 [Compound C-20, 1-((1S,4R)-4-((3S,8S,9S,10R,13R,14S,17R)-3-ethyl-3-hydroxy-10,13-dimethyl-2,3,4,7,8,9,10,11,12,13,14,15,16,17-tetradecahydro-1H-cyclopenta[a]phenanthren-17-yl)-1-hydroxypentyl)cyclopropane-1-carbonitrile], which EC50 [2] is on record?
**A.** The EC50 was 100 to 500 nM.

**Q.** With CC[C@]1(O)CC[C@@]2(C)C(=CC[C@H]3[C@@H]4CC[C@H]([C@H](C)CC[C@@H](O)C5(C#N)CC5)[C@@]4(C)CC[C@@H]32)C1 [Compound C-21, 1-((1R,4R)-4-((3S,8S,9S,10R,13R,14S,17R)-3-ethyl-3-hydroxy-10,13-dimethyl-2,3,4,7,8,9,10,11,12,13,14,15,16,17-tetradecahydro-1H-cyclopenta[a]phenanthren-17-yl)-1-hydroxypentyl)cyclopropane-1-carbonitrile] as the compound, how does the EC50 [2] read?
**A.** The EC50 was 1 to 100 nM.

**Q.** What does the source list for C[C@H](CC[C@H](O)C1(C#N)CC1)[C@H]1CC[C@H]2[C@@H]3CC=C4C[C@@](C)(O)CC[C@]4(C)[C@H]3CC[C@]12C [Compound C-22, 1-((1S,4R)-1-hydroxy-4-((3S,8S,9S,10R,13R,14S,17R)-3-hydroxy-3,10,13-trimethyl-2,3,4,7,8,9,10,11,12,13,14,15,16,17-tetradecahydro-1H-cyclopenta[a]phenanthren-17-yl)pentyl)cyclopropane-1-carbonitrile]?
**A.** Emax [1]: < 100%; EC50 [2]: 1 to 100 nM
